Laboratory results reported in US20230064983A1 (priority 2020, published 2023).
Where “and” joins values, the source holds several entries; their conditions need not be identical. Identical values can stand only once.

Assays:
[1] = molecular target: T1, EGFR with insertion SVD between D770 and N771 (mutEGFR D770_N771insSVD) (Homo sapiens, UniProt P00533, DUP768-770); assay: Exon20-Mutant-EGFR(D770_N771insSVD) kinase assay (TR-FRET); type: biochemical; details: 2 mM ATP, Table 2
T1 construct: amino acids R669 to A1210; made in house; host or cells: Sf9 insect cells (baculovirus)

Bub1 = molecular target: T2, Bub1 (Homo sapiens, UniProt O43683); assay: Bub1 high ATP kinase assay (TR-FRET); type: biochemical; details: Bub1 high ATP (2 mM) IC50, TR-FRET, 2 mM ATP; Table 3
T2 construct: catalytic domain of human Bub1 (amino acids 704-1085); His6 (N); made in house; host or cells: insect cells (Hi5)
Method in brief: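 Enzyme was His6-tagged human Bub1 catalytic domain (aa 704-1085) from Hi5 insect cells, typically about 200 ng/ml, with a biotinylated peptide substrate at high ATP. Reaction ran 60 min at 22 °C, then was stopped with EDTA. Phosphopeptide was detected by TR-FRET (anti-phosphoserine antibody, Eu-labelled anti-mouse IgG, streptavidin-XL665), read as the 665/620 nm emission ratio.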

[2] = molecular target: Ba/F3-EGFR-D770_N771insSVD cells (Homo sapiens, UniProt P00533, DUP768-770, cells depend on it); assay: Ba/F3 cell survival assay, EGFR D770_N771insSVD; type: cell-based; details: Cell Titer-Glo, 48 h, without IL-3; Table 4; read-out: BA/F3 (insSVD) IC50
[3] = molecular target: Ba/F3-EGFR-D770_N771insNPG cells (Homo sapiens, UniProt P00533, INS772GNP, cells depend on it); assay: Ba/F3 cell survival assay, EGFR D770_N771insNPG; type: cell-based; details: EGFR Exon20 insertion mutations; Table 6; read-out: BA/F3 (insNPG) IC50
[4] = molecular target: Ba/F3-EGFR-V769_D770insASV cells (Homo sapiens, UniProt P00533, DUP767-769, cells depend on it); assay: Ba/F3 cell survival assay, EGFR V769_D770insASV; type: cell-based; details: EGFR Exon20 insertion mutations; Table 6; read-out: BA/F3 (ASV) IC50
[5] = molecular target: Ba/F3-EGFR-H773_V774insNPH cells (Homo sapiens, UniProt P00533, DUP771-773, cells depend on it); assay: Ba/F3 cell survival assay, EGFR H773_V774insNPH; type: cell-based; details: EGFR Exon20 insertion mutations; Table 6; read-out: BA/F3 (EGFR H773_774insNPH) IC50
[6] = molecular target: Ba/F3-EGFR-E746_A750del cells (Homo sapiens, UniProt P00533, DEL746-750, cells depend on it); assay: Ba/F3 cell survival assay, EGFR E746_A750del; type: cell-based; details: classical activating and rare EGFR mutations; Table 7; read-out: BA/F3 (EGFR E746_A750del) IC50
[7] = molecular target: Ba/F3-EGFR-D770_N771insSVD C797S cells (Homo sapiens, UniProt P00533, DUP768-770/C797S, cells depend on it); assay: Ba/F3 cell survival assay, EGFR D770_N771insSVD C797S; type: cell-based; details: aquired resistance space; Table 8; read-out: BA/F3 (EGFR 0770_N771 insSVD C797S) IC50
[8] = molecular target: Ba/F3-EGFR-L858R C797S cells (Homo sapiens, UniProt P00533, C797S/L858R, cells depend on it); assay: Ba/F3 cell survival assay, EGFR L858R C797S; type: cell-based; details: aquired resistance space; Table 8; read-out: BA/F3 (EGFR L858R C797S) IC50
[9] = molecular target: Ba/F3-ERBB2-A775_G776insYVMA cells (Homo sapiens, UniProt P04626, DUP772-775, cells depend on it); assay: Ba/F3 cell survival assay, ERBB2 A775_G776insYVMA; type: cell-based; details: Table 9; read-out: BA/F3 (ERBB2 A775_G776 insYVMA) IC50
PC9 cells = assay: PC9 cell proliferation assay (EGFRex19del); type: cell-based; details: Homo sapiens, PC-9, 72 h, read-out: PC9 IC50
Description: Cellular Data Description (PC9 cells, EGFRex19del)
PC9 cells were purchased from Tokyo Medical College. 400 PC9 cells per well were seeded in growth medium (DMEM, 10% FCS) in a 384-well plate (CORNING #3571). Seed reference plate for time zero determination on the same day. All plates were incubated overnight at 37° C. After 24 hours, test compound were added in 7-step dilution using HP Compound printer and incubated at 37° C. for 72 h. After 3 days, 30 μL/well CTG solution (Promega Cell Titer Glo solution; catalog #G755B and G756B) were added to each well, incubated for 30 minutes and the plate were read on PheraStar. Proliferation is calculated after subtracting time zero luminescence values from day 4 values and comparing to untreated wells.
The IC50 values were determined using the four parameter fit.

T1 sequence (P00533 other isoform, or with tags, fused parts or gaps DUP768-770): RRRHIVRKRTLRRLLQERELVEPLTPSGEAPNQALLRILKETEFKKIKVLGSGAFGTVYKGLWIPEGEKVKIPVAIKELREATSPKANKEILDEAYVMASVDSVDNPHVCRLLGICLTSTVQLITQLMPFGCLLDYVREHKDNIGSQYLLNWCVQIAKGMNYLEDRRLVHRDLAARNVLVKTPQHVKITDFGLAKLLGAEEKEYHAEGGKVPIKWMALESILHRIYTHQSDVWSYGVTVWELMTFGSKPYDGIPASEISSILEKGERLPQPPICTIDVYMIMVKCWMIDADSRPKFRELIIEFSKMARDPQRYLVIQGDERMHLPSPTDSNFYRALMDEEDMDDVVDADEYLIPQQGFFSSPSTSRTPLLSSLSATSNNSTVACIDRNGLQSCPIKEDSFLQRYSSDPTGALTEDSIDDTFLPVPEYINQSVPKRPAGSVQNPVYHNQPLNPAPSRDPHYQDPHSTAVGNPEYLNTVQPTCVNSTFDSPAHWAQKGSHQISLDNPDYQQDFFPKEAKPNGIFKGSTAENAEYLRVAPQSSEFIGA
Chain of Ba/F3-EGFR-D770_N771insSVD cells (P00533 with tags, fused parts or gaps DUP768-770): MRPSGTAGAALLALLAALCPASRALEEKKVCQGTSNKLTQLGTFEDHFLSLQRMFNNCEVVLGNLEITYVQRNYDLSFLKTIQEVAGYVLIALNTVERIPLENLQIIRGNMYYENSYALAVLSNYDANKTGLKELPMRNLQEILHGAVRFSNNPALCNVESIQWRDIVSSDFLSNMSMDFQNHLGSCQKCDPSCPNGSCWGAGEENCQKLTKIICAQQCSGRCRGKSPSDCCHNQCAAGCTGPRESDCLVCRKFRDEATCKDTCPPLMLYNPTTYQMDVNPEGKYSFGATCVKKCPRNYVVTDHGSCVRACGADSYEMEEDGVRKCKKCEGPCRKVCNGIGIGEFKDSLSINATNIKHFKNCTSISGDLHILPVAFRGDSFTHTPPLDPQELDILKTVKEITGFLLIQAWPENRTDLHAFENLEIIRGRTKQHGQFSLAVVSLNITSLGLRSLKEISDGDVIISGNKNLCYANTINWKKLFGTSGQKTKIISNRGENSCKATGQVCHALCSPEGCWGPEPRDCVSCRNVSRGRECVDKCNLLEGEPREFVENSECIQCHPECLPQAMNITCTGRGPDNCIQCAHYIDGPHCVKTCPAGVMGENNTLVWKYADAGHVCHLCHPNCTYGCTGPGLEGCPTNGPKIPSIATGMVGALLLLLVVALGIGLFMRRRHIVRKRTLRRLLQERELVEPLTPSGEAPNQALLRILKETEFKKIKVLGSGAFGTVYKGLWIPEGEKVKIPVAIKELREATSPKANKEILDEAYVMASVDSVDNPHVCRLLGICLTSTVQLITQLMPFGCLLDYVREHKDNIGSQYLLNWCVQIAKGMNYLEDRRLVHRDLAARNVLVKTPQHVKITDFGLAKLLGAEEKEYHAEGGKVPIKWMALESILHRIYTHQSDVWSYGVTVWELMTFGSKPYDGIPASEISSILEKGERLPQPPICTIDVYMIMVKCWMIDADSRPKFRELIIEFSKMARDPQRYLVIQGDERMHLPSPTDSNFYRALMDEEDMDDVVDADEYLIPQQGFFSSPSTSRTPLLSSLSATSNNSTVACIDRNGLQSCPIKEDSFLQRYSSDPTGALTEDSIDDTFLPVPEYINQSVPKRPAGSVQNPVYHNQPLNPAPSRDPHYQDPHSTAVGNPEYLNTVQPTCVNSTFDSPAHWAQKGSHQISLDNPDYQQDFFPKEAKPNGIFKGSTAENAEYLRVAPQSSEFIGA
Chain of Ba/F3-EGFR-D770_N771insSVD C797S cells (P00533 with tags, fused parts or gaps DUP768-770/C797S): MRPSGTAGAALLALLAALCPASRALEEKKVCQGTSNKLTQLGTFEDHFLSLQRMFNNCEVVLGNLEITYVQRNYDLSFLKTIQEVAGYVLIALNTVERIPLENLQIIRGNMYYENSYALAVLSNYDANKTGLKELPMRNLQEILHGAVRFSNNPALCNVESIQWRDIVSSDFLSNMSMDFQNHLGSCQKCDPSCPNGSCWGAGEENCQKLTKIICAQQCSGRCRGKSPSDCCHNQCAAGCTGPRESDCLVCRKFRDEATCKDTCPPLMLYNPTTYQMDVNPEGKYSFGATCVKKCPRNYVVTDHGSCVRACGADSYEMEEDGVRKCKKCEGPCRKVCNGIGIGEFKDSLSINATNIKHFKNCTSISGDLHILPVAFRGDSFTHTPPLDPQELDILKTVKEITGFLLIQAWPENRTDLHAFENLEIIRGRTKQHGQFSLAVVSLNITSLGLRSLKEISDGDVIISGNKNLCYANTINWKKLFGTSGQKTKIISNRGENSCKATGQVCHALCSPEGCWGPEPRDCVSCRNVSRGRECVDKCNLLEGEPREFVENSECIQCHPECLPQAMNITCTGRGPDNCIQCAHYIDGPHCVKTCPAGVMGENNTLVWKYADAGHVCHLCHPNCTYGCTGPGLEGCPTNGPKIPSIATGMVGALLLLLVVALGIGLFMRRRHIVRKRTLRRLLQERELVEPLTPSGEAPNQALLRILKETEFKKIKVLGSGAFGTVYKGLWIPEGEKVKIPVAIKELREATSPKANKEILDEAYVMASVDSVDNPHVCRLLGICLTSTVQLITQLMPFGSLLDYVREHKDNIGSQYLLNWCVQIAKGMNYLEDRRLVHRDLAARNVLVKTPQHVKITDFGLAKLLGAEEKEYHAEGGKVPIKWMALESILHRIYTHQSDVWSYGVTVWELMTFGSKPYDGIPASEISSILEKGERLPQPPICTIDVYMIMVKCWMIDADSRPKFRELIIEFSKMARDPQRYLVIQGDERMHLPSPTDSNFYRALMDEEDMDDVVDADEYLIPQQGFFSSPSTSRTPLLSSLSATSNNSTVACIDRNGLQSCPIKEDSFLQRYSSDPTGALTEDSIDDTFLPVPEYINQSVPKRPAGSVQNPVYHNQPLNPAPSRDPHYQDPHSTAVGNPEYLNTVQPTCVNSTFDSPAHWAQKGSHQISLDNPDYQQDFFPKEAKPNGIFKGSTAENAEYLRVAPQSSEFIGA
Chain of Ba/F3-EGFR-D770_N771insNPG cells (P00533 with tags, fused parts or gaps INS772GNP): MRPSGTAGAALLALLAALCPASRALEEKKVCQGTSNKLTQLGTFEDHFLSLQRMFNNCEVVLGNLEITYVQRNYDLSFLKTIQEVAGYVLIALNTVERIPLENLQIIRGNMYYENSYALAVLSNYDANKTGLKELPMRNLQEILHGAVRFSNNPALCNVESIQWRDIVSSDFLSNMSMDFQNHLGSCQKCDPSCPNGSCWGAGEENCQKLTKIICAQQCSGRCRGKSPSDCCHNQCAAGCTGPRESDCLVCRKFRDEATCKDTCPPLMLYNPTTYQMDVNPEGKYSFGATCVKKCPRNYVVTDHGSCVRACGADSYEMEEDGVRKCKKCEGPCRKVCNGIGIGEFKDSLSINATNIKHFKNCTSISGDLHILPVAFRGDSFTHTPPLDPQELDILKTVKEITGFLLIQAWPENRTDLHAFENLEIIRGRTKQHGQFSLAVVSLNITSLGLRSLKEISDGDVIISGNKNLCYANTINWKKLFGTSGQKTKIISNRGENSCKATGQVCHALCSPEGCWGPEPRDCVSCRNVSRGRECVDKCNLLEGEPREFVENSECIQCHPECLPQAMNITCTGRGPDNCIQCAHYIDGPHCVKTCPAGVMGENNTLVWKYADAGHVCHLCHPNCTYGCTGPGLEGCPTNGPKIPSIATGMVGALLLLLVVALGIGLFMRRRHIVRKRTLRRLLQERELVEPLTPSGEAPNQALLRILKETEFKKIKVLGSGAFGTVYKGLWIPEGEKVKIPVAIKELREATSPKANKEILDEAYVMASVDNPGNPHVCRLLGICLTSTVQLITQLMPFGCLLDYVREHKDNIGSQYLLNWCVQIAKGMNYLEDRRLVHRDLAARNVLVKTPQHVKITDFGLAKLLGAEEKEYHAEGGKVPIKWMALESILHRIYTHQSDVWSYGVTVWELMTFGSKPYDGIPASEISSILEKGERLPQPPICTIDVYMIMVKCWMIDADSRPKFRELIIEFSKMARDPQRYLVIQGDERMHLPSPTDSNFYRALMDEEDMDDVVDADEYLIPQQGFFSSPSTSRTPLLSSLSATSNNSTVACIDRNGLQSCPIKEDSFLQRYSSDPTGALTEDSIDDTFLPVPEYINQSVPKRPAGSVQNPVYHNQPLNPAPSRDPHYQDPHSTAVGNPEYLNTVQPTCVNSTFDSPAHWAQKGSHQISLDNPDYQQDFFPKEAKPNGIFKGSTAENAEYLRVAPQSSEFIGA
T2 sequence (O43683 704-1085): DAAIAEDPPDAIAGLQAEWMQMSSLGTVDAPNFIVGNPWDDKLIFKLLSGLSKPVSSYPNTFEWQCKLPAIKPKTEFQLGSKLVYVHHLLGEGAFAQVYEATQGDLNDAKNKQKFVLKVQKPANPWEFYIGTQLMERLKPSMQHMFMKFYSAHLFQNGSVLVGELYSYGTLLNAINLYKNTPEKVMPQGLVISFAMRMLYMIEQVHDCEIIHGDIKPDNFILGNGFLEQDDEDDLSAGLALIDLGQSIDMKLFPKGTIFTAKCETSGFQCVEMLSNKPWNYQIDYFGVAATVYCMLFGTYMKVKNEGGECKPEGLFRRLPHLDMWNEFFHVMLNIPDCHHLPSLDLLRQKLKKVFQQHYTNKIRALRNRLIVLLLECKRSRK

`COCC(C)Oc1cnccc1-c1[nH]c2c(c1Nc1cccc(Cl)c1OC)C(=O)N[C@@H]1CCC[C@H]21` (single isomer, unassigned) [Example 51] was tested, and the “mutEGFR (D770_N771insSVD) kinase assay IC50” value (“mutEGFR” below) [1] was 0.305 nM, the IC50 (Bub1) was 7090 nM and the GI50 [2] was 13.6 nM. For the same molecule, the GI50 [3] was 11.4 nM, the GI50 [4] was 12.8 nM and the GI50 [5] was 30.8 nM. It also gave a GI50 [6] of 1.05 nM, a GI50 [7] of 19.5 nM and a GI50 [8] of 1.32 nM. The GI50 [9] was 15.2 nM and the IC50 (PC9 cells) was 1.74 nM.
With `COc1c(Cl)cccc1Nc1c(-c2ccncc2OCC2COCCO2)[nH]c2c1C(=O)NCC2C` (single isomer, unassigned) [Example 34, 3-(3-chloro-2-methoxy-anilino)-2-[3-(1,4-dioxan-2-ylmethoxy)-4-pyridyl]-7-methyl-1,5,6,7-tetrahydropyrrolo[3,2-c]pyridin-4-one] the “mutEGFR” value [1] was 0.175 nM, the IC50 (Bub1) was over 20000 nM and the GI50 [2] was 20.2 nM. For the same molecule, the GI50 [3] was 16.9 nM, the GI50 [4] was 30.2 nM and the GI50 [5] was 165 nM. The GI50 [6] was 1.19 nM, the GI50 [7] was 35.5 nM and the GI50 [8] was 3.07 nM. The GI50 [9] was 33.1 nM and the IC50 (PC9 cells) was 3.43 nM.
For `COc1c(Cl)cccc1Nc1c(-c2ccncc2OCCC(C)OC)[nH]c2c1C(=O)N[C@H](C)C2` (single isomer, unassigned) [Example 121], the “mutEGFR” value [1] was 0.188 nM, the IC50 (Bub1) was 1830 nM and the GI50 [2] was 8.81 nM. The GI50 [3] was 12.8 nM, the GI50 [4] was 10.1 nM and the GI50 [5] was 49.2 nM. For the same molecule, the GI50 [6] was 0.887 nM, the GI50 [7] was 21.7 nM and the GI50 [8] was 1.07 nM. The GI50 [9] was 12.8 nM and the IC50 (PC9 cells) was 1.84 nM.
In the case of `COc1c(Cl)cccc1Nc1c(-c2ccncc2OC[C@@H]2CCCO2)[nH]c2c1C(=O)NC1(CC1)C2` [Example 113, 3′-(3-chloro-2-methoxyanilino)-2′-(3-{[(2S)-oxolan-2-yl]methoxy}pyridin-4-yl)-1′,7′-dihydrospiro[cyclopropane-1,6′-pyrrolo[3,2-c]pyridin]-4′(5′H)-one], the “mutEGFR” value [1] is reported as 0.201 nM, the IC50 (Bub1) is reported as 761 nM and the GI50 [2] is reported as 23.7 nM. It also gave a GI50 [3] of 24.9 nM, a GI50 [4] of 26 nM and a GI50 [5] of 116 nM. It also gave a GI50 [6] of 0.989 nM, a GI50 [7] of 71.4 nM and a GI50 [8] of 5.07 nM. The GI50 [9] was 22.2 nM and the IC50 (PC9 cells) was 6.46 nM.
For `COc1c(Cl)cccc1Nc1c(-c2ccncc2OCCC2CCCCO2)[nH]c2c1C(=O)N[C@H](C)C2` (single isomer, unassigned) [Example 87], the “mutEGFR” value [1] was 0.535 nM, the IC50 (Bub1) was 19100 nM and > 20000 nM and the GI50 [2] was 15 nM. The GI50 [3] was 15 nM, the GI50 [4] was 13.2 nM and the GI50 [5] was 138 nM. The GI50 [6] was 5 nM, the GI50 [7] was 22.1 nM and the GI50 [8] was 1.38 nM. For the same molecule, the GI50 [9] was 16.2 nM and the IC50 (PC9 cells) was 1.82 nM.
`Cc1c(Cl)cccc1Nc1c(-c2ccncc2OCC2COCCO2)[nH]c2c1C(=O)NCC2C` (single isomer, unassigned) [Example 67, 3-(3-chloro-2-methyl-anilino)-2-[3-(1,4-dioxan-2-ylmethoxy)-4-pyridyl]-7-methyl-1,5,6,7-tetrahydropyrrolo[3,2-c]pyridin-4-one] was tested, and the “mutEGFR” value [1] was 0.252 nM, the IC50 (Bub1) was 10100 nM and the GI50 [2] was 27.1 nM. It also gave a GI50 [3] of 13.5 nM, a GI50 [4] of 40.3 nM and a GI50 [5] of 117 nM. The GI50 [6] was 1.41 nM, the GI50 [7] was 40.6 nM and the GI50 [8] was 2.49 nM. For the same molecule, the GI50 [9] was 29.2 nM and the IC50 (PC9 cells) was 4.09 nM.
